Tests used:
Candida albicans = assay: Immunorestoration test (cyclophosphamide-immunosuppressed mice challenged with Candida albicans); format: in vivo; details: for Number of survivals: Candida albicans challenge, n = 10
Description: The test substance or a vehicle was administered i.p. to groups of 10 mice on days 1, 3 and 5 of the experiment in four different doses (0.1, 1, 10 and 100 mg/kg). Cyclophosphamide (30 mg/kg) was administered p.o. on days 2, 4, and 6. One day after the last immunosuppressant (cyclophosphamide) dose, the mice were challenged with a suspension of Candida albicans sufficient to result in the mortality of a predominant number of the animals.

lymphocytes B = assay: Determination of haemolytic plaques for the assessment of the maturation of lymphocytes B; format: in vivo; details: mice immunized with sheep erythrocytes, n = 5
Description: A suspension of sheep erythrocytes (Institute of Microbiology, Faculty of Medicine, Ljubljana, Slovenia) in physiological saline (10^8 /ml) was used for the immunization. […] Romurtide was dissolved in a solution of D-manitol (45 mg/ml; Nopia) and compound 1 was dissolved in physiological saline. The immunization was completed on day 5 after the administration of sheep erythrocytes and the mice were sacrificed. Their spleens were removed and homogenized in Gibco 199 medium. The lymphocytes were separated on the Ficol separating medium (Pharmacia, Uppsala, Sweden). After repeated rinsing with Gibco 199 medium, the cells were resuspended in RPMI 1640 nutrient medium with added 10% of foetal calf serum and streptomycin. To 50 μl of the cell suspension, 450 μl of trypan blue were added and the cells were counted in Neubauer's chamber. The number of lymphocytes per ml of the cell suspension was calculated. To 100 μl of the diluted cell suspension, there were added 200 μl of the RPMI 1640 nutrient medium, 50 μl of a 10% suspension of sheep erythrocytes and 50 μl of guinea pig complement (Institute for Microbiology, Faculty of Medicine, Ljubljana, Slovenia). The reaction mixture (RM) was put into the prepared chambers on the slide, the chambers were sealed with white wax and incubated at 37° C. for 60 minutes. After the completion of the incubation, the plaques were counted under microscope. The number of plaques per 1×10^6 cells was calculated according to the following equations: [formula] In the table, the values are presented as stimulation indexes (number of plaques in the test group/number of plaques in the control group).

[1] = Pyrogenous activity according to the method of USPXXII; format: in vivo
Description: The pyrogenous activity was determined according to the method of USPXXII.

[2] = Toxicity, average lethal dose (LD50); format: in vivo; details: male mice, intravenous application
B-16 melanoma = assay: Antitumor activity, solid subcutaneous B-16 melanoma; format: in vivo, C57B1/6 strain mice; details: 10 mg/kg on five consecutive days, started 24 hours after tumor induction; for Animals with complete regression of tumors: still without tumors on day 20
Description: Solid subcutaneous B-16 melanoma were used on C57B1/6 strain mice of 8 to 10 weeks. The tumors were implanted by injection of 3×10^5 live tumor cells into the left lower abdomen of mice. The suspension of tumor cells was prepared in ENAM (Eagle's Minimal Essential Medium, Sigma Chemical Co., St. Louis, Mo., U.S.A.) enriched with 2% foetal calf serum (FCS, Sigma). Tumor cells (B-16 melanoma tumor cells, clone F1, ATCC, Rockville, Md.) for implantation into test animals were grown in vitro in a cell culture. The application of the test substances was started 24 hours after the tumor induction. The test substance was injected five times on five consecutive days in a dose of 10 mg/kg, the dose of Nopia was 1 mg/kg of test animals daily (a fivefold human dose). The antitumor activity of the active compounds was monitored by recording the tumor emergence, daily measuring the tumor diameters and calculating the tumour volumes.

[3] = 0.1 mg/kg × 3 i.p. + cyclophosphamide 30 mg/kg p.o.
[4] = 1 mg/kg × 3 i.p. + cyclophosphamide 30 mg/kg p.o.
[5] = 10 mg/kg × 3 i.p. + cyclophosphamide 30 mg/kg p.o.
[6] = 100 mg/kg × 3 i.p. + cyclophosphamide 30 mg/kg p.o.

With `C[C@H](NC(=O)C1(C)Oc2ccccc2N(C)C1=O)C(=O)N[C@H](CCC(=O)O)C(N)=O` (stereo partly drawn) [Compound 1, N-(3,4-Dihydro-2,4-dimethyl-3-oxo-2H-1,4-benzoxazine-2-carbonyl)-L-alanyl-D-isoglutamine] the Number of survivals (Candida albicans; [3]) was 6, the Number of survivals (Candida albicans; [4]) was 6 and the Number of survivals (Candida albicans; [5]) was 7. The Number of survivals (Candida albicans; [6]) was 6, the “Dose achieving the immunorestorative effect, times lower in comparison with the related compounds of U.S. Pat. No. 5,231,216” value (Candida albicans; comparison across i.p. doses 0.1-100 mg/kg) was “up to 100 times” and the “Immunorestorative activity compared with romurtide” value (Candida albicans; mouse, in vivo) was “superior to that of the MDP analogue romurtide”. The “Stimulation index (number of plaques in the test group/number of plaques in the control group)” value (lymphocytes B; dose 1 μ/mouse) was 3.64, the “Stimulation index (number of plaques in the test group/number of plaques in the control group)” value (lymphocytes B; dose 10 μ/mouse) was 5.32 and the Pyrogenous activity [1] was “did not show any pyrogenous activity”. For the same compound, the “average lethal dose (LD50)” value [2] was > 250 mg/kg.
For `C[C@@H](NC(=O)C1(C)Oc2ccccc2NC1=O)C(=O)N[C@H](CCC(=O)O)C(N)=O` (stereo partly drawn) [Compound 2, (2R)-N-(3,4-dihydro-2-methyl-3-oxo-2H-1,4-benzoxazine-2-carbonyl)-L-alanyl-D-isoglutamine], the “Animals with complete regression of tumors” value (B-16 melanoma) was “two of eight animals”.
For `CCCCCCCCCCCCCCCCCC(=O)NCCCC[C@H](NC(=O)CC[C@@H](NC(=O)[C@H](C)NC(=O)[C@@H](C)O[C@H]1[C@H](O)[C@@H](CO)OC(O)[C@@H]1NC(C)=O)C(N)=O)C(=O)O` (stereo partly drawn) [Romurtide, romurtide, reference compound], the Number of survivals (Candida albicans; [3]) was 5, the “Stimulation index (number of plaques in the test group/number of plaques in the control group)” value (lymphocytes B; dose 1 μ/mouse) was 1.06 and the “Stimulation index (number of plaques in the test group/number of plaques in the control group)” value (lymphocytes B; dose 10 μ/mouse) was 1.92.
`O=P1(N(CCCl)CCCl)NCCCO1` (stereo not drawn) [Cyclophosphamide, reference compound] gave a Number of survivals (Candida albicans; cyclophosphamide alone 30 mg/kg × 3 p.o.) of 3.
Work on `CCCCCCCCCCCC(=O)N[C@@H]1CCCC[C@H]1OCC(=O)N[C@@H](C)C(=O)N[C@H](CCC(=O)O)C(N)=O` [U.S. 5,231,216, N[trans2-(2dodecanoylaminocyclohexyloxy)acetyl)L-alanyl-D-isoglutamine, reference compound] yielded a Number of survivals (Candida albicans; [3]) of 2, a Number of survivals (Candida albicans; [4]) of 5 and a Number of survivals (Candida albicans; [5]) of 6. For the same compound, the Number of survivals (Candida albicans; [6]) was 6.
For `C[C@H](NC(=O)C1(C)Oc2ccccc2N(C)C1=O)C(=O)N[C@H](CCC(=O)O)C(N)=O` (stereo partly drawn) [Compound 4, (2S)-N-(3,4-dihydro-2,4-dimethyl-3-oxo-2H-1,4-benzoxazine-2-carbonyl)-L-alanyl-D-isoglutamine], the “Animals with complete regression of tumors” value (B-16 melanoma) was “one of nine animals”.
In the case of `C[C@H](NC(=O)C1(C)Oc2ccccc2NC1=O)C(=O)N[C@H](CCC(=O)O)C(N)=O` (stereo partly drawn) [Compound 3, N-(3,4-dihydro-2-methyl-3-oxo-2H-1,4-benzoxazine-2-carbonyl)-L-alanyl-D-isoglutamine], the “Animals still without tumors on day 20 after the tumor induction” value (B-16 melanoma) is reported as “three animals of nine”.
